According to ChEMBL document CHEMBL5649169 (ChemMedChem, 2018):

Key:
[1] = biological target: Dolichyl pyrophosphate Glc1Man9GlcNAc2 alpha-1,3-glucosyltransferase (Homo sapiens) (UniProt Q9BVK2)
[2] = biological target: AP-1 complex subunit gamma-1 (Homo sapiens) (UniProt O43747)
[3] = biological target: ATP synthase F(1) complex subunit alpha, mitochondrial (Homo sapiens) (UniProt P25705)
[4] = biological target: F-actin-capping protein subunit alpha-2 (Homo sapiens) (UniProt P47755)
[5] = biological target: T-complex protein 1 subunit theta (Homo sapiens) (UniProt P50990)
[6] = biological target: Cyclin-dependent kinase 5 (Homo sapiens) (UniProt Q00535)
[7] = biological target: Dual specificity protein kinase CLK2 (Homo sapiens) (UniProt P49760)
[8] = biological target: Eukaryotic translation initiation factor 3 subunit L (Homo sapiens) (UniProt Q9Y262)
Sequence of Eukaryotic translation initiation factor 3 subunit L (Homo sapiens) (Q9Y262 whole entry): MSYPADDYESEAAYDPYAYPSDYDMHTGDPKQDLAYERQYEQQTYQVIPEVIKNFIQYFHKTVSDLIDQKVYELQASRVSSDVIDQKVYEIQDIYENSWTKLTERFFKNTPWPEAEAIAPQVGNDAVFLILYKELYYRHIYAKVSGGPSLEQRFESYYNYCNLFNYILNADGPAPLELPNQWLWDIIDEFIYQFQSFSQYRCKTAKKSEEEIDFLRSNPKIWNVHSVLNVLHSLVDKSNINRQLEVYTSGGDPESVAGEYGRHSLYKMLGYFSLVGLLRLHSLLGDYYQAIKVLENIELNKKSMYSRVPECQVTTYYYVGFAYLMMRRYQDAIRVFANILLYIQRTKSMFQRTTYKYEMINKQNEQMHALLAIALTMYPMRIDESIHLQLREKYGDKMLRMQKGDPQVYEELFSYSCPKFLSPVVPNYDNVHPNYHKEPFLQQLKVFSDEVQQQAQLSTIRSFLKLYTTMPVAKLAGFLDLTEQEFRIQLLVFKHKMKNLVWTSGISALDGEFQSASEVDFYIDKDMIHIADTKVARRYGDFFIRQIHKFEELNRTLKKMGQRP

[9] = biological target: Probable ATP-dependent RNA helicase DDX5 (Homo sapiens) (UniProt P17844)
[10] = biological target: 2,4-dienoyl-CoA reductase [(3E)-enoyl-CoA-producing], mitochondrial (Homo sapiens) (UniProt Q16698)
[11] = biological target: RNA-binding protein EWS (Homo sapiens) (UniProt Q01844)
[12] = biological target: Exosome complex component 10 (Homo sapiens) (UniProt Q01780)
[13] = biological target: Fascin (Homo sapiens) (UniProt Q16658)
[14] = biological target: Glutathione S-transferase omega-1 (Homo sapiens) (UniProt P78417)
[15] = organism: Homo sapiens
[16] = biological target: Heterogeneous nuclear ribonucleoprotein U (Homo sapiens) (UniProt Q00839)
[17] = biological target: Interleukin enhancer-binding factor 3 (Homo sapiens) (UniProt Q12906)
[18] = biological target: Kinetochore-associated protein 1 (Homo sapiens) (UniProt P50748)
[19] = biological target: Lysosome-associated membrane glycoprotein 2 (Homo sapiens) (UniProt P13473)
[20] = biological target: Serine/threonine-protein kinase LATS1 (Homo sapiens) (UniProt O95835)
Sequence of Serine/threonine-protein kinase LATS1 (Homo sapiens) (O95835 whole entry): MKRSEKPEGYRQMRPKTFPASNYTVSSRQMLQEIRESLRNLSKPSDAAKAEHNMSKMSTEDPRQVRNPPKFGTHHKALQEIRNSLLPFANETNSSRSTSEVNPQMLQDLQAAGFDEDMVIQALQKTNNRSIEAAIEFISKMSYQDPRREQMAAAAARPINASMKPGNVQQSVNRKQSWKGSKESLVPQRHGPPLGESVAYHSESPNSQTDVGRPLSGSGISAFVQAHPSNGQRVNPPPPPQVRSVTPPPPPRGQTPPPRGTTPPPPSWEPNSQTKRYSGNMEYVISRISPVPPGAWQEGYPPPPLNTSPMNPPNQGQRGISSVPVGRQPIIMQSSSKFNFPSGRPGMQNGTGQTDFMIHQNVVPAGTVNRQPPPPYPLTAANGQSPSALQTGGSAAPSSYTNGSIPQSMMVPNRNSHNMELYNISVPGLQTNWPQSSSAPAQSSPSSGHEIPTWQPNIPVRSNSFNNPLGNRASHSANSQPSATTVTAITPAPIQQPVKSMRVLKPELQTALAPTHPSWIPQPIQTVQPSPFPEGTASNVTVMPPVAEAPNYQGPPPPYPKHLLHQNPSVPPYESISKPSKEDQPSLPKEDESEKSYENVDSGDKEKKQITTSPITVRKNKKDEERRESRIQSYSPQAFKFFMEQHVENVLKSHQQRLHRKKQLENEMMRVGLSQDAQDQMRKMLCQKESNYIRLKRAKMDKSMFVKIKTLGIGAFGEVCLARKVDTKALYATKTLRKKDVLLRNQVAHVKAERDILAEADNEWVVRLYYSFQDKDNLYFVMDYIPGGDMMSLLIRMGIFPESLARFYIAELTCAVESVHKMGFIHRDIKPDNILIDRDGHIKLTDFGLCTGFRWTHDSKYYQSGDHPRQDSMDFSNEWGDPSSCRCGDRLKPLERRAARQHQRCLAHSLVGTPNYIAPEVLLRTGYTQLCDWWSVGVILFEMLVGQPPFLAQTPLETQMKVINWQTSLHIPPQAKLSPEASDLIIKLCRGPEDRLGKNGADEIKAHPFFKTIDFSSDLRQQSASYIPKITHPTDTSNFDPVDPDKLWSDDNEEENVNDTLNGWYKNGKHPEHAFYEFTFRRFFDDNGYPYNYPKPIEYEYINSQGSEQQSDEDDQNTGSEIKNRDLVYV

[21] = biological target: Dual specificity mitogen-activated protein kinase kinase 2 (Homo sapiens) (UniProt P36507)
[22] = biological target: Mitogen-activated protein kinase kinase kinase 11 (Homo sapiens) (UniProt Q16584)
Sequence of Mitogen-activated protein kinase kinase kinase 11 (Homo sapiens) (Q16584 whole entry, looked up): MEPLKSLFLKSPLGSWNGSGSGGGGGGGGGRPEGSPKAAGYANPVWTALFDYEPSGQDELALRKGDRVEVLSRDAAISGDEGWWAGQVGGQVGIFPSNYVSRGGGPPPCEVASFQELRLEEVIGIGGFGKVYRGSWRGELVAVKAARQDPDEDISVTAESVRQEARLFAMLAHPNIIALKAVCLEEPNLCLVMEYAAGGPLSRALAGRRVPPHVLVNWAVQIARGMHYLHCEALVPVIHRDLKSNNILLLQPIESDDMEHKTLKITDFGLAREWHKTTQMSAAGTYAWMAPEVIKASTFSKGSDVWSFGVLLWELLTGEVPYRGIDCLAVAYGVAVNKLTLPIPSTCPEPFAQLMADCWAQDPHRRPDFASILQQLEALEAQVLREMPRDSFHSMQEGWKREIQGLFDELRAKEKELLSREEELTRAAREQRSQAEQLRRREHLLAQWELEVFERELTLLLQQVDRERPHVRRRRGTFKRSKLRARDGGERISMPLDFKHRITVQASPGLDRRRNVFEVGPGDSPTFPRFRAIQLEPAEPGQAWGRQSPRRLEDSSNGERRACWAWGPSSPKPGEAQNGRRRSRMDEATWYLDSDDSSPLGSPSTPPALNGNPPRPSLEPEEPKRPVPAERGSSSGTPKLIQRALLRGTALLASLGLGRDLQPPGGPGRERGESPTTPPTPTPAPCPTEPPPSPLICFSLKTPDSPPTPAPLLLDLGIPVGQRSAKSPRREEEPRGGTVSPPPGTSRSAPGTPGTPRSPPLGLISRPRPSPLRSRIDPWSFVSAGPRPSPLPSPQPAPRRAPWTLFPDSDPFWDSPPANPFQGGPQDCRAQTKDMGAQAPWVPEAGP

[23] = biological target: Mitogen-activated protein kinase 11 (Homo sapiens) (UniProt Q15759)
Sequence of Mitogen-activated protein kinase 11 (Homo sapiens) (Q15759 whole entry): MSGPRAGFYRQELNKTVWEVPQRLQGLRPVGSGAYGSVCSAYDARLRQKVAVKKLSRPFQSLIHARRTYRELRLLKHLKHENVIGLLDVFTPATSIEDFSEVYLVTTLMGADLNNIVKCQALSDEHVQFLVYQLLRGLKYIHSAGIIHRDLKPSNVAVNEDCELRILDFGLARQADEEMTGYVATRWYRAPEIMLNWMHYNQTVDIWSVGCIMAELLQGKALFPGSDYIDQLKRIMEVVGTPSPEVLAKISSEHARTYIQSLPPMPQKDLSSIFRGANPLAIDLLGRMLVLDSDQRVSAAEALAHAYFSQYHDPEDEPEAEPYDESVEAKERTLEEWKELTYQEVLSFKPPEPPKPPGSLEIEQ

[24] = biological target: Misshapen-like kinase 1 (Homo sapiens) (UniProt Q8N4C8)
[25] = biological target: Double-strand break repair protein MRE11 (Homo sapiens) (UniProt P49959)
Sequence of Double-strand break repair protein MRE11 (Homo sapiens) (P49959 whole entry): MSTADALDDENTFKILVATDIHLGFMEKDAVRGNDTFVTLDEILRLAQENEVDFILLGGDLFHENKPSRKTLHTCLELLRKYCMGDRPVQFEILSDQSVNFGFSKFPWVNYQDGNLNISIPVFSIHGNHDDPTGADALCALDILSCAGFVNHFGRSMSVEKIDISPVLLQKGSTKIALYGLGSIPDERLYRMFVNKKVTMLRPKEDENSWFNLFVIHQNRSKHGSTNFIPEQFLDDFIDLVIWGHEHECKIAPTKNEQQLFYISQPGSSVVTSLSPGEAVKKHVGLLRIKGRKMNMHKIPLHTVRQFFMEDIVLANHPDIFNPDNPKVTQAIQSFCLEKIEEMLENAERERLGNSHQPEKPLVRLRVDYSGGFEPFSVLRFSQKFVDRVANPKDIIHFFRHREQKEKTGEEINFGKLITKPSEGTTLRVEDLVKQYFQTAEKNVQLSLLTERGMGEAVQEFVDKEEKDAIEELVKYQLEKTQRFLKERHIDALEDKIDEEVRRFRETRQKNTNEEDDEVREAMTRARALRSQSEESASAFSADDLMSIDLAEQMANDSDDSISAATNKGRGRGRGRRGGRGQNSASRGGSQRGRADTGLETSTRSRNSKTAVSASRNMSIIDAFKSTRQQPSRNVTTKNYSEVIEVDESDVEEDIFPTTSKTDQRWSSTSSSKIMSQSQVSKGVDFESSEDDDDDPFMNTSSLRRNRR

[26] = biological target: ATP synthase F(0) complex subunit a (Homo sapiens) (UniProt P00846)
[27] = biological target: Serine/threonine-protein kinase pim-1 (Homo sapiens) (UniProt P11309)
[28] = biological target: Peroxiredoxin-2 (Homo sapiens) (UniProt P32119)
Sequence of Peroxiredoxin-2 (Homo sapiens) (P32119 whole entry): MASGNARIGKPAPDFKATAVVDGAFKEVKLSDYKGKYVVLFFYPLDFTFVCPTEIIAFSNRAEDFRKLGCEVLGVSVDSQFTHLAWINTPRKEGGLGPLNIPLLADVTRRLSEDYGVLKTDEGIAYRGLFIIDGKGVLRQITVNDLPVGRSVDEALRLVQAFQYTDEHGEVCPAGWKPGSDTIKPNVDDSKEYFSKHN

[29] = biological target: cAMP-dependent protein kinase catalytic subunit beta (Homo sapiens) (UniProt P22694)
[30] = biological target: cAMP-dependent protein kinase type II-alpha regulatory subunit (Homo sapiens) (UniProt P13861)
[31] = biological target: Protein kinase C delta type (Homo sapiens) (UniProt Q05655)
[32] = biological target: Protein arginine N-methyltransferase 5 (Homo sapiens) (UniProt O14744)
[33] = biological target: 26S proteasome non-ATPase regulatory subunit 12 (Homo sapiens) (UniProt O00232)
[34] = biological target: Ras-related protein Rab-5B (Homo sapiens) (UniProt P61020)
[35] = biological target: Rab-like protein 3 (Homo sapiens) (UniProt Q5HYI8)
[36] = biological target: ATP-dependent DNA helicase Q1 (Homo sapiens) (UniProt P46063)
[37] = biological target: Replication factor C subunit 3 (Homo sapiens) (UniProt P40938)
[38] = biological target: Large ribosomal subunit protein eL14 (Homo sapiens) (UniProt P50914)
[39] = biological target: Large ribosomal subunit protein uL6 (Homo sapiens) (UniProt P32969)
[40] = biological target: Dolichyl-diphosphooligosaccharide--protein glycosyltransferase subunit 1 (Homo sapiens) (UniProt P04843)
Sequence of Dolichyl-diphosphooligosaccharide--protein glycosyltransferase subunit 1 (Homo sapiens) (P04843 whole entry): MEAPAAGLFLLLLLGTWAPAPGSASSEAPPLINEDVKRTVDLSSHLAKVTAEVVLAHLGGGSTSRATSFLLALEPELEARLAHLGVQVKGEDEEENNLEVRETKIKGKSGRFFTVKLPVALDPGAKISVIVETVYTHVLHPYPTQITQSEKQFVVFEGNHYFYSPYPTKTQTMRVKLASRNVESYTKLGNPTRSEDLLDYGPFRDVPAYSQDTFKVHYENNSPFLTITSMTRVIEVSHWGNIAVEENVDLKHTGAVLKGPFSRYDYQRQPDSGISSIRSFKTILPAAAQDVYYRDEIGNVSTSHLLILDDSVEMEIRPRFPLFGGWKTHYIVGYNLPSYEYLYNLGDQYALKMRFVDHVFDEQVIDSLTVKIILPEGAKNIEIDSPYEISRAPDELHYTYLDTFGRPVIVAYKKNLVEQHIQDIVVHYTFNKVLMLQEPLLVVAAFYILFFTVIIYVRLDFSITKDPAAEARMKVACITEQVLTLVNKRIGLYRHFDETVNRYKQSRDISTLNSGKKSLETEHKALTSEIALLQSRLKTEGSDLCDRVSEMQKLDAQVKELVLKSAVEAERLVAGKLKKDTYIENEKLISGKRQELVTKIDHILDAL

[41] = biological target: Small ribosomal subunit protein eS6 (Homo sapiens) (UniProt P62753)
[42] = biological target: Serrate RNA effector molecule homolog (Homo sapiens) (UniProt Q9BXP5)
[43] = biological target: Protein SGT1 homolog (Homo sapiens) (UniProt Q9Y2Z0)
[44] = biological target: Serine/threonine-protein kinase TAO3 (Homo sapiens) (UniProt Q9H2K8)
[45] = biological target: Mitochondrial import inner membrane translocase subunit TIM44 (Homo sapiens) (UniProt O43615)
[46] = biological target: Gamma-tubulin complex component 3 (Homo sapiens) (UniProt Q96CW5)
Further: assay method not described here.

Sequence of Dolichyl pyrophosphate Glc1Man9GlcNAc2 alpha-1,3-glucosyltransferase (Homo sapiens) (Q9BVK2 whole entry): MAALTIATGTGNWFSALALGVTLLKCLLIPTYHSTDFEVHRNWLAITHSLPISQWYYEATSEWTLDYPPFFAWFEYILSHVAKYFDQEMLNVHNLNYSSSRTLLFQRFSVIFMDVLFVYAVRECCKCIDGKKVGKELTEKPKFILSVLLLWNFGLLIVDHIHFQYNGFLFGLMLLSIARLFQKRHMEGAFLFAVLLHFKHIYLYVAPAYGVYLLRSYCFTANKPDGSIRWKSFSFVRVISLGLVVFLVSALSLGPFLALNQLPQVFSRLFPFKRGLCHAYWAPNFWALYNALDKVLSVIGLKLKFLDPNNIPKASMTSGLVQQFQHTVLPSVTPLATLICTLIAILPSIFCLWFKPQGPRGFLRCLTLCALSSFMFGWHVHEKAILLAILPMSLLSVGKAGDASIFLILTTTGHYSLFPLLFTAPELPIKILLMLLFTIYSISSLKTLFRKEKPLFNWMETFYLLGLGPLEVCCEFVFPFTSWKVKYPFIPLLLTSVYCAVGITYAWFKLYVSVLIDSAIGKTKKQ

Cc1ccc(C(=O)Nc2cccc(C(F)(F)F)c2)cc1Nc1nc(-c2cccnc2)nc2c1cnn2C
ED50 [1]: 0.0377 µM | ED50 [2]: 163 nM | ED50 [3]: 1480 nM | ED50 [4]: 3230 nM | ED50 [5]: 0.0186 µM | ED50 [6]: 5.06 µM | ED50 [7]: 117 µM | ED50 [8]: 2500 nM | ED50 [9]: 1160 nM | ED50 [10]: 3.63 µM | ED50 [11]: 54.1 µM | ED50 [12]: 0.0037 µM | ED50 [13]: 18.6 nM | ED50 [14]: 4060 nM | ED50 [15]: 1290 nM | ED50 [16]: 1.95e-05 mM | ED50 [17]: 9.39 µM | ED50 [18]: 14 µM | ED50 [19]: 37.8 nM | ED50 [20]: 1.86 nM | ED50 [21]: 12.7 nM | ED50 [22]: 176 nM | ED50 [23]: 0.0255 µM | ED50 [24]: 6.35 µM | ED50 [25]: 2.59 µM | ED50 [26]: 677 nM | ED50 [27]: 58.3 nM | ED50 [28]: 8 µM | ED50 [29]: 3650 nM | ED50 [30]: 8.24 µM | ED50 [31]: 3810 nM | ED50 [32]: 18.2 µM | ED50 [33]: 3200 nM | ED50 [34]: 18.1 µM | ED50 [35]: 4.04 µM | ED50 [36]: 0.0304 µM | ED50 [37]: 485 nM | ED50 [38]: 0.187 µM | ED50 [39]: 1.27 µM | ED50 [40]: 130 nM | ED50 [41]: 14.4 nM | ED50 [42]: 1130 nM | ED50 [43]: 17.2 µM | ED50 [44]: 5850 nM | ED50 [45]: 445 nM | ED50 [46]: 10.2 µM

Cc1ccc(C(=O)Nc2cccc(C(F)(F)F)c2)cc1Nc1nc(-c2cccnc2)nc2nn(C)cc12
ED50 [1]: 72.9 µM | ED50 [2]: 1370 nM | ED50 [3]: 1740 nM | ED50 [4]: 2530 nM | ED50 [5]: 43.3 µM | ED50 [6]: 17.2 µM | ED50 [7]: 6.69 µM | ED50 [8]: 71.4 nM | ED50 [9]: 15.7 nM | ED50 [10]: 10.5 µM | ED50 [11]: 11.8 µM | ED50 [12]: 348 µM | ED50 [13]: 348 nM | ED50 [14]: 94.5 nM | ED50 [15]: 27.4 nM | ED50 [16]: 13.2 mM | ED50 [17]: 0.0174 µM | ED50 [18]: 0.0543 µM | ED50 [19]: 1720 nM | ED50 [20]: 87.8 nM | ED50 [21]: 2140 nM | ED50 [22]: 5250 nM | ED50 [23]: 6.69 µM | ED50 [24]: 36.4 µM | ED50 [25]: 14.9 µM | ED50 [26]: 622 nM | ED50 [27]: 90.1 nM | ED50 [28]: 6.92 µM | ED50 [29]: 6.79 nM | ED50 [30]: 0.325 µM | ED50 [31]: 0.136 nM | ED50 [32]: 3 µM | ED50 [33]: 50.4 nM | ED50 [34]: 0.0327 µM | ED50 [35]: 22.5 µM | ED50 [36]: 12.9 µM | ED50 [37]: 50.5 nM | ED50 [38]: 7.31 µM | ED50 [39]: 5.23 µM | ED50 [40]: 38.8 nM | ED50 [41]: 61 nM | ED50 [42]: 1290 nM | ED50 [43]: 4.08 µM | ED50 [44]: 64.1 nM | ED50 [45]: 310 nM | ED50 [46]: 0.00173 µM
